According to ChEMBL document CHEMBL3507680, “University of Dundee, Gates Library screen for HepG2 cell viability”:

Assay: Human HepG2 cell viability assay in 384 well format
Assay type: toxicity, cell-based
Parameters: dose 125 nL, time 70.5 hour; concentration not given beside the values
Settings: HepG2 cells, read-out: Inhibition

| Compound | cytotoxicity at 70.5 h |
| --- | --- |
| CNC(=O)c1ccc(C2CN(C(=O)c3cnn(C)c3)CCO2)nc1 (centres undefined) | -4.81% |
| NC(=O)CCN1CCc2onc(-c3ccccc3F)c2C1 | -11.6% |
| Cc1nn(CC(=O)n2cccn2)c(C)c1I | 15.6% |
| CCn1cc(C(=O)NCC(C)(CC)N2CCOCC2)c2ccccc21 (centres undefined) | 5.27% |
| CC(C)c1cc(COCCC(=O)O)no1 | -6.18% |
| Cc1noc(CC2CCN(Cc3ccc(CCC(C)(C)O)cc3)CC2)n1 | -10.5% |
| CCN(CC)CCN(C)c1nc(-c2ccc(Cl)cc2)nc2c1CNC2 | 20.6% |
| Cc1cnc(N2CCCC(c3ccccc3)C2)nc1-c1ccnn1C (centres undefined) | -8.04% |
| COc1c(NS(=O)(=O)c2ccc(F)c(C)c2)c(C)nn1C | 0.334% |
| CCCc1nc(CN(C)CCOc2ccccc2)cs1 | -8.59% |
| CCc1cc(=O)[nH]c(-c2ccc(NCCc3ccc(O)cc3)nc2)n1 | -3.24% |
| COCCc1noc(-c2cc(Cl)c3c(c2)OCCCO3)n1 | -19.1% |
| O=C(NCCCOCC1CCCO1)c1cccnc1N1CCCC1 (centres undefined) | 1.79% |
| CC(C)C(=O)NCCNC(=O)C12CCC(=O)N1c1cc(Cl)ccc1S2 (centres undefined) | -1.8% |
| CCOc1ccc(Cl)c(C(=O)N2CCN(C(=O)OC)CC2)n1 | -14.3% |
| O=C1NC[C@]2(CC[C@@H](C(=O)N3CCCC(O)C3)CC2)Oc2ccccc21 (some centres undefined) | -7.1% |
| O=C(NCC(O)c1ccc(F)c(F)c1)c1cccnc1OCC(F)(F)F (centres undefined) | -8.69% |
| Cc1cc(N2CCN(c3ccc(=O)[nH]n3)CC2)nc(-c2ccncc2)n1 | -5.53% |
| CC(NC(=O)CCCc1nc(C(C)(C)C)no1)c1ccccn1 (centres undefined) | 10.9% |
| COCCN1Cc2ccccc2C2(CCN(S(C)(=O)=O)CC2)C1 | -5.3% |
| CN(Cc1ccc(F)cc1)CC1(O)CCN(C(=O)c2ccsc2)C1 (centres undefined) | 9.08% |
| CC(C)N(C)Cc1nnc2n1CCCN(C(=O)c1ccco1)C2 | -6.16% |
| CN1CCC(Nc2ccc(F)cc2OCC(F)(F)F)C1=O (centres undefined) | -0.0891% |

| Compound | cytotoxicity at 70.5 h |
| --- | --- |
| Cc1c(C(=O)N(C)CC(F)(F)F)nnn1-c1ccccc1Cl | 6.88% |
| CC(C)(C)C(=O)Nc1cnn(-c2ccccc2S(C)(=O)=O)c1 | -9.09% |
| CCc1ccc(CN2CCOC(Cc3cccc(F)c3)C2)nc1 (centres undefined) | -5.34% |
| Cn1cc(-c2cnc(N3CCOCC3)nc2)cc1C(=O)N1CCCC1 | -27.5% |
| O=C(Nc1ccccc1)c1ccc(NCc2ccncc2)nn1 | -5.4% |
| Cc1cc(CN2Cc3ccccc3CC2c2nnc(C)o2)no1 (centres undefined) | 1.64% |
| CC(=O)NCC1CCN(C(=O)NCCc2ccc(Cl)s2)CC1 | -6.89% |
| O=C(COCc1ccccc1Cl)N1CCCC(n2cccn2)C1 (centres undefined) | 3.17% |
| CC(=O)Nc1ncc(S(=O)(=O)N2CCN(C3CCCCC3)CC2)s1 | -5.13% |
| CCN1CCC(CNc2nccc(C)n2)(N(C)C)CC1 | -3.2% |
| N#Cc1ccc(CN2CCN(c3cncc(Cl)n3)CC2=O)cc1 | -4.86% |
| COc1ncc(Cl)c(NCc2ccc([S+](C)[O-])cc2)n1 (centres undefined) | -0.908% |
| COCCn1ccc2ccc(C(=O)N3CCN(C(C)=O)CC3)cc21 | -13.7% |
| CC1CCC(NS(=O)(=O)CC(=O)NC2(C(N)=O)CCCC2)CC1 (centres undefined) | -7.07% |
| Cc1cccc(N2CCC3(CCCN3Cc3c(C)nn(C)c3C)CC2)n1 | -3.1% |
| CNc1nc(C2CCCN2)nc2c1CCN(S(=O)(=O)C1CCCCC1)C2 (centres undefined) | 12.5% |
| CCOCC(=O)N1CCC2(CC1)CN(Cc1cccnc1)C(=O)CO2 | -9.22% |
| CC(=O)NCCc1ccc(S(=O)(=O)Nc2ccc(C)cc2F)s1 | -2.14% |
| Cc1ccc(C(=O)N2CCOC(c3nc(C(C)(C)C)n[nH]3)C2)c(=O)[nH]1 (centres undefined) | 0.0481% |
| CNC(=O)c1cccnc1N1CCN(Cc2ccccc2)C(CCO)C1 (centres undefined) | -14.9% |
| Cc1ccc([C@@H]2CN(S(=O)(=O)c3ccccc3)C[C@H]2N(C)C)cc1 | -9.61% |
| CC(C)n1nnnc1-c1ccc(NC(=O)CCC(F)(F)F)cc1F | -18% |
| O=C(NC1CCCC1)c1ccc(C2CCCNC2)nc1 (centres undefined) | 9.52% |

| Compound | cytotoxicity at 70.5 h |
| --- | --- |
| CSc1ccsc1C(=O)NS(=O)(=O)c1ccc(F)cc1 | -7.27% |
| Cc1ncccc1-c1cc2cccnc2n1CCCNC(=O)C1CC1 | 1.77% |
| OCC1CCCCN1c1ccc(-c2nc(-c3ccccc3F)no2)cn1 (centres undefined) | -24.7% |
| c1ccc(CN2C[C@@H]3OCCN(CC4CCCO4)[C@@H]3C2)nc1 (some centres undefined) | -9.93% |
| COC(=O)CCC(=O)N1CCC2(CN(Cc3cccc(Cl)c3)C2)C1 | 6.9% |
| CCc1nnc(Nc2cccc(C3CCN(c4cnccn4)CC3)n2)s1 | 14.7% |
| O=C(O)CCc1cccc(C2CCCN2Cc2ccc(F)c(F)c2)n1 (centres undefined) | -6.64% |
| COCC1CN(c2ccc(C)nn2)Cc2cnn(C)c21 (centres undefined) | -7.14% |
| Cc1ccc(CNC(=O)NC2CCCN(c3ncccn3)C2)cn1 (centres undefined) | -10% |
| CC(NC(=O)CNS(C)(=O)=O)c1ccccc1Oc1ccccc1 (centres undefined) | -7.15% |
| CCNC(=O)NC(=O)CNc1cc(C(=O)OC)cc(C(F)(F)F)c1 | -3.94% |
| CS(=O)(=O)N1CCC(NCC2(N3CCOCC3)CCCCC2)CC1 | -12.3% |
| OC1CCCOC12CCN(Cc1nnc(-c3cccnc3)o1)CC2 (centres undefined) | 0.216% |
| CCc1ccccc1-n1cc(O)c(C(=O)N2CCCCC2)n1 | -4.48% |
| Cc1cc(C)c2c(OCC(=O)NC(C)C)nn(C)c2n1 | 14.7% |
| Cc1cnn(CC2CCCN2Cc2noc(C(C)C)n2)c1 (centres undefined) | -5.54% |
| COc1ccc(-c2nnsc2C(=O)N2CCN(C(C)=O)CC2)cc1 | -12.8% |
| O=S(=O)(C1CC1)N1CCC2(CCCN(c3ncc(F)cn3)C2)C1 (centres undefined) | -11.2% |
| Cc1nnc(SCCC(=O)N(C)Cc2c(F)cccc2Cl)[nH]1 | -3.01% |
| CC(C)(C)OC(=O)N1CCC(NC2CC2)CC1 | -7.1% |
| CN1CCN([C@@H]2CCN(Cc3ccc4cc(F)ccc4n3)C[C@H]2O)CC1 | -1.96% |
| CC(C)(C)CN1CCC[C@H]1c1nc(-c2cncnc2N)no1 | -0.753% |
| O=C(c1cscn1)N1CCC[C@]2(C[C@@H](OCC3CC3)CO2)C1 | -11% |

| Compound | cytotoxicity at 70.5 h |
| --- | --- |
| CCc1nc2c(s1)C(N(C)C(=O)c1cc[nH]n1)CCC2 (centres undefined) | -10.2% |
| O=C1NCC(C(=O)Nc2ncc(Cc3ccccc3)s2)N1 (centres undefined) | 44.7% |
| CNC(=O)c1cccnc1N1CCN(C/C=C/c2ccccc2)CC1 | 6.62% |
| COc1cccc(CN2CCN(C(=O)Nc3nc(C)ns3)CC2=O)c1 | -0.713% |
| O=C(O)c1cc(NS(=O)(=O)c2ccc(Cl)s2)ccc1N1CCOCC1 | -2.78% |
| CN(CC1CCCCO1)c1nc2c(cc1C(N)=O)CCC2 (centres undefined) | -8.46% |
| Cc1cc(OCC(=O)NS(=O)(=O)c2c(C)noc2C)ccc1Cl | -7.45% |
| NC(=O)N1CC(OCc2cccc3ccccc23)C1 | 2.87% |
| CCc1noc(CN(Cc2cccs2)CC2CCCO2)n1 (centres undefined) | -1.65% |
| Cc1cncc(C2CCN(Cc3cccn3C)CC2)n1 | 11.8% |
| O=C1CCCC2(CCN(C(=O)c3ccccn3)CC2)N1 | -1.46% |
| CC(C1CCN(Cc2ccccc2OC(F)F)CC1)N1CCOCC1 (centres undefined) | -8.64% |
| Cc1cc(C)nc(N2CCC(c3c(C(N)=O)sc4ccccc34)C2)n1 (centres undefined) | -3.24% |
| O=C(Nc1cc(F)ccc1OCC1CCCO1)c1ccc(O)nc1 (centres undefined) | -6.69% |
| CCc1nccn1CC(=O)N1C[C@H]2CC[C@@H]1CN(C(=O)N(C)C)C2 | -3.56% |
| CCNC(=O)N(CCCO)C1CCCc2ccccc21 (centres undefined) | -3.93% |
| CCC(CC(=O)Nc1ccc2c(c1)CC(=O)N2)c1ccccc1 (centres undefined) | -6.03% |
| COc1ccccc1-c1ccc(C2CCCN(C(C)=O)C2)nc1 (centres undefined) | -0.199% |
| COc1cccc(CNC(=O)CC2CSc3ncc(C)c(=O)n32)c1 (centres undefined) | 10.1% |
| COC(=O)c1cccc(C(=O)N(C)Cc2cccc(O)c2)c1 | 15.5% |
| Cc1cc(CN2CCCC(CNC(=O)Cn3cccn3)C2)oc1C (centres undefined) | -6.83% |
| CCN(CC)C(=O)CCNC(=O)N(C)Cc1ccc(SC)c(OC)c1 | -11.2% |
| CN1C(=O)[C@H](OC(N)=O)[C@@H](C(=O)Nc2ccccc2)C12CCNCC2 | -10.7% |

| Compound | cytotoxicity at 70.5 h |
| --- | --- |
| NC(=O)CNC(=O)c1ccc(CNCc2ccc(F)cc2F)cc1 | -23.7% |
| CN(C)CCO[C@H]1CN(Cc2ccco2)[C@@H]2COC[C@H]12 | -3.7% |
| Cc1cc(NC(C)c2n[nH]c(C)n2)n2nc(C)c(C)c2n1 (centres undefined) | 20% |
| COCc1cc(NCc2ccccc2-n2cncn2)ncn1 | -10.8% |
| COc1c(F)cc(CN2CCCC3(CC2)CNC(=O)O3)cc1Cl (centres undefined) | 5.1% |
| CCN1CC2(CCN(CCOc3ccc(F)cc3)CC2)CC1=O | 12.8% |
| CCc1ccsc1C(=O)N1CCCN(Cc2cscn2)CC1 | 3.8% |
| Cc1noc2ncc(C(=O)N3CCCC3c3ccncc3)cc12 (centres undefined) | 33.6% |
| CCOc1cccc2c1OCC(C(=O)NS(=O)(=O)c1c(C)noc1C)=C2 | -2.53% |
| CN1CCC2(CC1)Cc1ccccc1CN(C(=O)CN)C2 | 24.5% |
| O=C(Cc1ccsc1)N1CCn2cc(Cn3cncn3)nc2C1 | 2.98% |
| Cc1nn(C)c(N(C)C)c1CNC(C)c1cccnc1 (centres undefined) | -6.25% |
| CC(C)NC(=O)c1cc2c(c3ccccc3n2C)n1C(=O)N(C)C | -9.14% |
| COCCN1C(=O)C2(CCC(C(=O)Nc3cccc(C)c3)CC2)N=C1C (centres undefined) | -9.96% |
| COc1ccc2[nH]cc(C(=O)CNc3nc(C)cs3)c2c1 | 6.66% |
| c1cnn(Cc2nnc3n2CCCN(CC2CCOCC2)C3)c1 | -2.91% |
| CN(C)c1ncc(-c2cc(C(=O)O)n(CC3CC3)c2)cn1 | -4.19% |
| CCOC(=O)N1CCN(C(=O)c2snnc2-c2ccccc2)CC1 | -9.63% |
| O=C1CSC(c2ccc(O)c(Cl)c2)c2c(n(C3CCOCC3)[nH]c2=O)N1 (centres undefined) | 6.82% |
| O=C(c1cnc(COc2ccccc2)nc1O)N1CCOCC1 | -5.87% |
| Cc1ccc(Oc2ccc(NC(=O)NCC3CCOC3)cn2)cc1C (centres undefined) | 4.23% |
| NS(=O)(=O)CCNC(=O)c1nnn(-c2ccccc2)c1C1CC1 | -2.47% |
